Like-named read-outs stand apart in the source and are kept apart here.
How the values were obtained:
Type in all cases: cell-based
[1] = test system: MCF-7 breast cancer cells; assay: MCF-7 proliferation / cell viability assay; settings: MCF-7 proliferation with 0.1 nM 17-beta estradiol, read-out: IC50 (anti-proliferation)
How it was run: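 Survival ratio, with vehicle (DMSO) as 100%, was derived from Coulter-counted viable cell numbers. Cells were grown in 5% FBS DMEM and dosed for 5 days across six concentrations between 10^−10 M and 10^−5 M.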

ER = target: T1, ER (Homo sapiens, UniProt P03372); assay: ER antagonism (T47D ERE luciferase), T47d-kb-Luc cells; settings: read-out: IC50 (ER antagonistm)
T1 construct: endogenous in cells; host or cells: T47d-kb-Luc (T47D stably transfected with a luciferase reporter gene only)
T1 sequence (P03372 1-595): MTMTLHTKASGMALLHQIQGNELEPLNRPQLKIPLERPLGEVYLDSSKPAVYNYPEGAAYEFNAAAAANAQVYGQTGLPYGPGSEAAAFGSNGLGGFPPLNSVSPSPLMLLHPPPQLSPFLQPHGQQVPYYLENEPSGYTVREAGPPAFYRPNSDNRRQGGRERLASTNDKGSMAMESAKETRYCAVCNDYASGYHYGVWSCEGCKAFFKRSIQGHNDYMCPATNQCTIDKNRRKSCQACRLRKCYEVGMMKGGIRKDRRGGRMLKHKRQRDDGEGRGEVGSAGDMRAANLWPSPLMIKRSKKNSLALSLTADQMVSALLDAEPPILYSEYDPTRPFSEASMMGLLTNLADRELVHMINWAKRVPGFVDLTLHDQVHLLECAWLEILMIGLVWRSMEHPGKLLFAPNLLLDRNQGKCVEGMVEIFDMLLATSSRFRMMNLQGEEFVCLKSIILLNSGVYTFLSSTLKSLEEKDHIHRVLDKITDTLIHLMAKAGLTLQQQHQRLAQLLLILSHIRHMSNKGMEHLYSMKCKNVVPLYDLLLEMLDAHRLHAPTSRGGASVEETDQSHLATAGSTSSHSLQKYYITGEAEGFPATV
How it was run: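 Five sample concentrations, each in quadruplicate and repeated in at least three experiments, were tested for blocking of estradiol activity. Values were expressed relative to the estradiol control. The cell system was the T47d-kb-Luc stable breast cancer line.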

ERα = target: T2, ERα (Homo sapiens, UniProt P03372); assay: ER degradation in MCF-7 cells (Western blot); settings: for DC50: ER degradation, 24 hours
T2 construct: endogenous in cells; host or cells: MCF-7
T2 sequence (P03372 1-595): T1 sequence (P03372 1-595)
How it was run: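 ERα levels assessed by Western blot (50 μg lysate protein, infrared scanner) after 24-hour exposure of MCF-7 cells to varied compound concentrations. Values reported as DC50, the concentration halving ER expression, and Dmax, the maximal ER reduction achieved across tested concentrations.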

[2] = MCF7, Maximal ER degradation, read-out: Dmax

| SMILES | IC50 ([1]; Homo sapiens, MCF7) | IC50 (ER) | DC50 (ERα) | Dmax (ERα; [2]) | IC50 [1] | Dmax (ERα; Maximal ER degradation) |
| --- | --- | --- | --- | --- | --- | --- |
| CC/C(=C(/c1ccc(O)cc1)c1ccc(OCCN2CCN(C(=O)N3CCN(c4ccc5c(c4)CN(C4CCC(=O)NC4=O)C5=O)CC3)CC2)cc1)c1ccccc1 (centres unmarked) [Compound 80, (E)-3-(5-(4-(4-(2-(4-(1-(4-hydroxyphenyl)-2-phenylbut-1-en-1-yl)phenoxy)ethyl)piperazine-1-carbonyl)piperazin-1-yl)-1-oxoisoindolin-2-yl)piperidine-2,6-dione] | < 0.01 µM | < 0.01 µM | < 0.01 µM | > 90% |  |  |
| CC/C(=C(/c1ccc(O)cc1)c1ccc(OCCN2CCN(C(=O)N3CCN(c4ccc5c(c4)CN([C@H]4CCC(=O)NC4=O)C5=O)CC3)CC2)cc1)c1ccccc1 [Compound 81, (S,E)-3-(5-(4-(4-(2-(4-(1-(4-hydroxyphenyl)-2-phenylbut-1-en-1-yl)phenoxy)ethyl)piperazine-1-carbonyl)piperazin-1-yl)-1-oxoisoindolin-2-yl)piperidine-2,6-dione] | < 0.01 µM | < 0.01 µM | < 0.01 µM | > 90% |  |  |
| CC/C(=C(/c1ccc(O)cc1)c1ccc(OCCN2CCN(C(=O)N3CCN(c4ccc5c(c4)CN([C@@H]4CCC(=O)NC4=O)C5=O)CC3)CC2)cc1)c1ccccc1 [Compound 82] | < 0.01 µM | < 0.01 µM | < 0.01 µM | > 90% |  |  |
| CC/C(=C(/c1ccc(OCCN2CCN(C(=O)N3CCN(c4ccc5c(c4)CN(C4CCC(=O)NC4=O)C5=O)CC3)CC2)cc1)c1ccc(B(O)O)cc1)c1ccccc1 (centres unmarked) [Compound 83, (Z)-(4-(1-(4-(2-(4-(4-(2-(2,6-dioxopiperidin-3-yl)-1-oxoisoindolin-5-yl)piperazine-1-carbonyl)piperazin-1-yl)ethoxy)phenyl)-2-phenylbut-1-en-1-yl)phenyl)boronic acid] | < 0.01 µM | < 0.01 µM | < 0.01 µM | > 90% |  |  |
| CC/C(=C(/c1ccc(OCCN2CCN(C(=O)N3CCN(c4ccc5c(c4)CN([C@H]4CCC(=O)NC4=O)C5=O)CC3)CC2)cc1)c1ccc(B(O)O)cc1)c1ccccc1 [Compound 84] | < 0.01 µM | < 0.01 µM | < 0.01 µM | > 90% |  |  |
| CC/C(=C(/c1ccc(OCCN2CCN(C(=O)N3CCN(c4ccc5c(c4)CN([C@@H]4CCC(=O)NC4=O)C5=O)CC3)CC2)cc1)c1ccc(B(O)O)cc1)c1ccccc1 [Compound 85, (R,Z)-(4-(1-(4-(2-(4-(4-(2-(2,6-dioxopiperidin-3-yl)-1-oxoisoindolin-5-yl)piperazine-1-carbonyl)piperazin-1-yl)ethoxy)phenyl)-2-phenylbut-1-en-1-yl)phenyl)boronic acid] | < 0.01 µM | < 0.01 µM | < 0.01 µM | > 90% |  |  |
| CC/C(=C(\c1ccc(OCCN2CCN(C(=O)N3CCN(c4ccc5c(c4)CN(C4CCC(=O)NC4=O)C5=O)CC3)CC2)cc1)c1ccc(B(O)O)cc1)c1ccccc1 (centres unmarked) [Compound 86, (E)-(4-(1-(4-(2-(4-(4-(2-(2,6-dioxopiperidin-3-yl)-1-oxoisoindolin-5-yl)piperazine-1-carbonyl)piperazin-1-yl)ethoxy)phenyl)-2-phenylbut-1-en-1-yl)phenyl)boronic acid] | < 0.01 µM | < 0.01 µM | < 0.01 µM | > 90% |  |  |
| CC/C(=C(\c1ccc(OCCN2CCN(C(=O)N3CCN(c4ccc5c(c4)CN([C@H]4CCC(=O)NC4=O)C5=O)CC3)CC2)cc1)c1ccc(B(O)O)cc1)c1ccccc1 [Compound 87, (S,E)-(4-(1-(4-(2-(4-(4-(2-(2,6-dioxopiperidin-3-yl)-1-oxoisoindolin-5-yl)piperazine-1-carbonyl)piperazin-1-yl)ethoxy)phenyl)-2-phenylbut-1-en-1-yl)phenyl)boronic acid] | < 0.01 µM | < 0.01 µM | < 0.01 µM | > 90% |  |  |
| CC/C(=C(\c1ccc(OCCN2CCN(C(=O)N3CCN(c4ccc5c(c4)CN([C@@H]4CCC(=O)NC4=O)C5=O)CC3)CC2)cc1)c1ccc(B(O)O)cc1)c1ccccc1 [Compound 88] | < 0.01 µM | < 0.01 µM | < 0.01 µM | > 90% |  |  |
| CC/C(=C(\c1ccc(O)cc1)c1ccc(OCCN2CCN(C(=O)N3CCC(CN4CCN(c5ccc6c(c5)CN(C5CCC(=O)NC5=O)C6=O)CC4)CC3)CC2)cc1)c1ccccc1 (centres unmarked) [Compound 89] |  | < 0.01 µM | < 0.01 µM |  | < 0.01 µM | A (A -> 90%) |
| CC/C(=C(/c1ccc(O)cc1)c1ccc(OCCN2CCN(C(=O)N3CCC(CN4CCN(c5ccc6c(c5)CN(C5CCC(=O)NC5=O)C6=O)CC4)CC3)CC2)cc1)c1ccccc1 (centres unmarked) [Compound 90, (E)-3-(5-(4-((1-(4-(2-(4-(1-(4-hydroxyphenyl)-2-phenylbut-1-en-1-yl)phenoxy)ethyl)piperazine-1-carbonyl)piperidin-4-yl)methyl)piperazin-1-yl)-1-oxoisoindolin-2-yl)piperidine-2,6-dione] | < 0.01 µM | < 0.01 µM | < 0.01 µM | > 90% |  |  |
| CC/C(=C(/c1ccc(OCCN2CCN(C(=O)N3CCC(CN4CCN(c5ccc6c(c5)CN(C5CCC(=O)NC5=O)C6=O)CC4)CC3)CC2)cc1)c1ccc(B(O)O)cc1)c1ccccc1 (centres unmarked) [Compound 91, (Z)-(4-(1-(4-(2-(4-(4-((4-(2-(2,6-dioxopiperidin-3-yl)-1-oxoisoindolin-5-yl)piperazin-1-yl)methyl)piperidine-1-carbonyl)piperazin-1-yl)ethoxy)phenyl)-2-phenylbut-1-en-1-yl)phenyl)boronic acid] | < 0.01 µM | < 0.01 µM | < 0.01 µM | > 90% |  |  |
| CC/C(=C(\c1ccc(OCCN2CCN(C(=O)N3CCC(CN4CCN(c5ccc6c(c5)CN(C5CCC(=O)NC5=O)C6=O)CC4)CC3)CC2)cc1)c1ccc(B(O)O)cc1)c1ccccc1 (centres unmarked) [Compound 92, (E)-(4-(1-(4-(2-(4-(4-((4-(2-(2,6-dioxopiperidin-3-yl)-1-oxoisoindolin-5-yl)piperazin-1-yl)methyl)piperidine-1-carbonyl)piperazin-1-yl)ethoxy)phenyl)-2-phenylbut-1-en-1-yl)phenyl)boronic acid] | < 0.01 µM | < 0.01 µM | < 0.01 µM | > 90% |  |  |
| CC/C(=C(\c1ccc(O)cc1)c1ccc(OCCN2CCN(C(=O)N3CCC(N4CCN(c5ccc6c(c5)CN(C5CCC(=O)NC5=O)C6=O)CC4)CC3)CC2)cc1)c1ccccc1 (centres unmarked) [Compound 93, (Z)-3-(5-(4-(1-(4-(2-(4-(1-(4-hydroxyphenyl)-2-phenylbut-1-en-1-yl)phenoxy)ethyl)piperazine-1-carbonyl)piperidin-4-yl)piperazin-1-yl)-1-oxoisoindolin-2-yl)piperidine-2,6-dione] | < 0.01 µM | < 0.01 µM | 0.01 to 0.05 µM | > 90% |  |  |
| CC/C(=C(/c1ccc(O)cc1)c1ccc(OCCN2CCN(C(=O)N3CCC(N4CCN(c5ccc6c(c5)CN(C5CCC(=O)NC5=O)C6=O)CC4)CC3)CC2)cc1)c1ccccc1 (centres unmarked) [Compound 94, (E)-3-(5-(4-(1-(4-(2-(4-(1-(4-hydroxyphenyl)-2-phenylbut-1-en-1-yl)phenoxy)ethyl)piperazine-1-carbonyl)piperidin-4-yl)piperazin-1-yl)-1-oxoisoindolin-2-yl)piperidine-2,6-dione] | < 0.01 µM | < 0.01 µM | 0.01 to 0.05 µM | > 90% |  |  |
| CC/C(=C(/c1ccc(OCCN2CCN(C(=O)N3CCC(N4CCN(c5ccc6c(c5)CN(C5CCC(=O)NC5=O)C6=O)CC4)CC3)CC2)cc1)c1ccc(B(O)O)cc1)c1ccccc1 (centres unmarked) [Compound 95] | < 0.01 µM | < 0.01 µM | 0.01 to 0.05 µM | > 90% |  |  |
| CC/C(=C(\c1ccc(OCCN2CCN(C(=O)N3CCC(N4CCN(c5ccc6c(c5)CN(C5CCC(=O)NC5=O)C6=O)CC4)CC3)CC2)cc1)c1ccc(B(O)O)cc1)c1ccccc1 (centres unmarked) [Compound 96, (E)-(4-(1-(4-(2-(4-(4-(4-(2-(2,6-dioxopiperidin-3-yl)-1-oxoisoindolin-5-yl)piperazin-1-yl)piperidine-1-carbonyl)piperazin-1-yl)ethoxyl)phenyl)-2-phenylbut-1-en-1-yl)phenyl)boronic acid] | < 0.01 µM | < 0.01 µM | 0.01 to 0.05 µM | > 90% |  |  |
